Test results reported in the supplement of paper PMC10307832.

Key:
Experiment in all cases: relative viability (nuclei count vs DMSO), 5 days (fraction); higher = more cells survive
NCI-H1993 = system: NCI-H1993
Outline: (§1)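 Lung cancer cell lines, seeded in 1536-well plates, were treated the following day by pin tool with a single drug or with five library-drug doses (not always all listed) in √10 steps on top of a fixed anchor-drug dose. Cells were fixed and nuclei stained in one step after 5 days, and nuclei were counted. Relative viability is the nuclei count for treated wells divided by that for vehicle wells, reported as medians of duplicate plates.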

NCI-H596 = system: NCI-H596
Outline: as §1

CAL-12T = system: CAL-12T
Outline: as §1

NCI-H2085 = system: NCI-H2085
Outline: as §1

NCI-H2405 = system: NCI-H2405
Outline: as §1

NCI-H1734 = system: NCI-H1734
Outline: as §1

NCI-H1623 = system: NCI-H1623
Outline: as §1

NCI-H1703 = system: NCI-H1703
Outline: as §1

HCC-366 = system: HCC-366
Outline: as §1

EBC-1 = system: EBC-1
Outline: as §1

Calu-6 = system: Calu-6
Outline: as §1

NCI-H1299 = system: NCI-H1299
Outline: as §1

A549 = system: A549
Outline: as §1

IA-LM = system: IA-LM
Outline: as §1

## COCC1(CO)C(=O)C2CCN1CC2 (stereo not drawn) [PRIMA-1MET] + CCNC(=O)c1noc(-c2cc(C(C)C)c(O)cc2O)c1-c1ccc(CN2CCOCC2)cc1 [Luminespib] (partner 0.01 µM)
NCI-H1993; first compound 0.2 µM
  relative viability: 1.04
NCI-H1993; first compound 0.6325 µM
  relative viability: 0.829
NCI-H1993; first compound 2 µM
  relative viability: 0.959
NCI-H1993; first compound 6.325 µM
  relative viability: 0.996
NCI-H1993; first compound 20 µM
  relative viability: 0.758
NCI-H596; first compound 0.2 µM
  relative viability: 0.921
NCI-H596; first compound 0.6325 µM
  relative viability: 0.809
NCI-H596; first compound 2 µM
  relative viability: 0.858
NCI-H596; first compound 6.325 µM
  relative viability: 0.936
NCI-H596; first compound 20 µM
  relative viability: 0.109
CAL-12T; first compound 0.2 µM
  relative viability: 0.363
CAL-12T; first compound 0.6325 µM
  relative viability: 0.383
CAL-12T; first compound 2 µM
  relative viability: 0.547
CAL-12T; first compound 6.325 µM
  relative viability: 0.918
CAL-12T; first compound 20 µM
  relative viability: 0.166
NCI-H2085; first compound 0.2 µM
  relative viability: 0.55
NCI-H2085; first compound 0.6325 µM
  relative viability: 0.44
NCI-H2085; first compound 2 µM
  relative viability: 0.3
NCI-H2085; first compound 6.325 µM
  relative viability: 0.42
NCI-H2085; first compound 20 µM
  relative viability: 0.267
NCI-H2405; first compound 0.2 µM
  relative viability: 0.65
NCI-H2405; first compound 0.6325 µM
  relative viability: 0.598
NCI-H2405; first compound 6.325 µM
  relative viability: 0.688
NCI-H2405; first compound 20 µM
  relative viability: 0.249
NCI-H1734; first compound 0.2 µM
  relative viability: 0.214
NCI-H1734; first compound 0.6325 µM
  relative viability: 0.18
NCI-H1734; first compound 2 µM
  relative viability: 0.192
NCI-H1734; first compound 6.325 µM
  relative viability: 0.172
NCI-H1734; first compound 20 µM
  relative viability: 0.0435
NCI-H1623; first compound 0.2 µM
  relative viability: 0.592
NCI-H1623; first compound 0.6325 µM
  relative viability: 0.37
NCI-H1623; first compound 2 µM
  relative viability: 0.446
NCI-H1623; first compound 6.325 µM
  relative viability: 0.426
NCI-H1623; first compound 20 µM
  relative viability: 0.247

## COCC1(CO)C(=O)C2CCN1CC2 (stereo not drawn) [PRIMA-1MET] + COc1cc2c(Oc3ccc(NC(=O)C4(C(=O)Nc5ccc(F)cc5)CC4)cc3F)ccnc2cc1OCCCN1CCOCC1 [Foretinib] (partner 0.25 µM)
NCI-H1993; first compound 0.2 µM
  relative viability: 0.875
NCI-H1993; first compound 0.6325 µM
  relative viability: 0.767
NCI-H1993; first compound 2 µM
  relative viability: 0.657
NCI-H1993; first compound 6.325 µM
  relative viability: 0.803
NCI-H1993; first compound 20 µM
  relative viability: 0.754
NCI-H596; first compound 0.2 µM
  relative viability: 0.91
NCI-H596; first compound 0.6325 µM
  relative viability: 0.924
NCI-H596; first compound 2 µM
  relative viability: 0.697
NCI-H596; first compound 6.325 µM
  relative viability: 0.318
NCI-H596; first compound 20 µM
  relative viability: 0.0971
CAL-12T; first compound 0.2 µM
  relative viability: 1.33
CAL-12T; first compound 0.6325 µM
  relative viability: 1.23
CAL-12T; first compound 2 µM
  relative viability: 1
CAL-12T; first compound 6.325 µM
  relative viability: 1.16
CAL-12T; first compound 20 µM
  relative viability: 0.939
NCI-H2085; first compound 0.2 µM
  relative viability: 1.01
NCI-H2085; first compound 0.6325 µM
  relative viability: 1.01
NCI-H2085; first compound 2 µM
  relative viability: 0.772
NCI-H2085; first compound 6.325 µM
  relative viability: 0.53
NCI-H2085; first compound 20 µM
  relative viability: 0.122
NCI-H1703; first compound 0.2 µM
  relative viability: 0.512
NCI-H1703; first compound 0.6325 µM
  relative viability: 0.368
NCI-H1703; first compound 2 µM
  relative viability: 0.353
NCI-H1703; first compound 6.325 µM
  relative viability: 0.388
NCI-H1703; first compound 20 µM
  relative viability: 0.0682
HCC-366; first compound 0.2 µM
  relative viability: 0.84
HCC-366; first compound 0.6325 µM
  relative viability: 0.946
HCC-366; first compound 2 µM
  relative viability: 0.826
HCC-366; first compound 6.325 µM
  relative viability: 0.974
HCC-366; first compound 20 µM
  relative viability: 0.207
EBC-1; first compound 0.2 µM
  relative viability: 0.101
EBC-1; first compound 0.6325 µM
  relative viability: 0.0986
EBC-1; first compound 2 µM
  relative viability: 0.105
EBC-1; first compound 6.325 µM
  relative viability: 0.107
EBC-1; first compound 20 µM
  relative viability: 0.122
Calu-6; first compound 0.2 µM
  relative viability: 0.918
Calu-6; first compound 0.6325 µM
  relative viability: 0.649
Calu-6; first compound 2 µM
  relative viability: 0.899
Calu-6; first compound 6.325 µM
  relative viability: 0.904
Calu-6; first compound 20 µM
  relative viability: 0.335
NCI-H2405; first compound 0.2 µM
  relative viability: 1.03
NCI-H2405; first compound 0.6325 µM
  relative viability: 1.03
NCI-H2405; first compound 6.325 µM
  relative viability: 1.03
NCI-H2405; first compound 20 µM
  relative viability: 0.506
NCI-H1734; first compound 0.2 µM
  relative viability: 1.04
NCI-H1734; first compound 0.6325 µM
  relative viability: 0.741
NCI-H1734; first compound 2 µM
  relative viability: 0.741
NCI-H1734; first compound 6.325 µM
  relative viability: 0.759
NCI-H1734; first compound 20 µM
  relative viability: 0.0666
NCI-H1623; first compound 0.2 µM
  relative viability: 0.789
NCI-H1623; first compound 0.6325 µM
  relative viability: 0.819
NCI-H1623; first compound 2 µM
  relative viability: 0.744
NCI-H1623; first compound 6.325 µM
  relative viability: 0.905
NCI-H1623; first compound 20 µM
  relative viability: 0.701
NCI-H1299; first compound 0.2 µM
  relative viability: 1.13
NCI-H1299; first compound 0.6325 µM
  relative viability: 1.12
NCI-H1299; first compound 2 µM
  relative viability: 1.19
NCI-H1299; first compound 6.325 µM
  relative viability: 1.12
NCI-H1299; first compound 20 µM
  relative viability: 1.02
A549; first compound 0.2 µM
  relative viability: 1.02
A549; first compound 0.6325 µM
  relative viability: 0.834
A549; first compound 2 µM
  relative viability: 1.07
A549; first compound 6.325 µM
  relative viability: 0.807
A549; first compound 20 µM
  relative viability: 0.894
IA-LM; first compound 0.2 µM
  relative viability: 1.07
IA-LM; first compound 0.6325 µM
  relative viability: 1.12
IA-LM; first compound 2 µM
  relative viability: 1.35
IA-LM; first compound 6.325 µM
  relative viability: 1.06
IA-LM; first compound 20 µM
  relative viability: 1.07
